These results are taken from patent US4515727A, “Allene containing arachidonic acid derivatives” (SYNTEX (U.S.A.) Inc., priority 1982, dated 1985).

The target of one test is T1, Lipoxygenase (Homo sapiens, UniProt P09917).
T1 construct: The PMNs were prepared from 200-300 ml of heparinized blood of healthy donors; endogenous in cells; host or cells: human polymorphonuclear leukocytes from heparinized blood of healthy donors (intact cells)
T1 sequence (P09917 1-674): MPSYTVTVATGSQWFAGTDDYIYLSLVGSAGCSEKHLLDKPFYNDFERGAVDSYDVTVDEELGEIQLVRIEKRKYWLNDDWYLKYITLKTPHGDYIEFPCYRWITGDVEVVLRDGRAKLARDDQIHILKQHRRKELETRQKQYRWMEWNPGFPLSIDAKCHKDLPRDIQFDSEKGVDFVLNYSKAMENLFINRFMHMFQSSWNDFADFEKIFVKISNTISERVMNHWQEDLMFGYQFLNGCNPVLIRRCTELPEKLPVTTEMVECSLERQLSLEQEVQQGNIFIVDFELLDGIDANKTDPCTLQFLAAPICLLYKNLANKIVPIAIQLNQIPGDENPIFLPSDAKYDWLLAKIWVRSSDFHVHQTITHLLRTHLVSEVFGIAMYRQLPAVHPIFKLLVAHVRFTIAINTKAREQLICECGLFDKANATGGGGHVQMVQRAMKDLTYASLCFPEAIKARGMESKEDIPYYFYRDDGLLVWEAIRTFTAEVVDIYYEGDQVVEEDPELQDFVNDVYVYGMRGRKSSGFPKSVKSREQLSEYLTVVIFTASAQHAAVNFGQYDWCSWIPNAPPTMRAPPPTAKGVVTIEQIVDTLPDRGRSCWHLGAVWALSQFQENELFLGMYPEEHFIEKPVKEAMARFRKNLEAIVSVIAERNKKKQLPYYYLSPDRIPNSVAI
The test is described as follows: Inhibition of lipoxygenase activity by human polymorphonuclear leukocytes (PMNs). The note with it: test compound 1×10^-4 m, 37° C., 5 minutes, arachidonic acid 1-C14 1×10^-4 M; for Percent Inhibition Lipoxygenese Act. 5-HETE: product 5-hydroxy-7,9,11,14-eicosatetraenoic acid; for Percent Inhibition Lipoxygenese Act. LTB4: product Leukotriene B4. The format is cell-based. As for the experimental part: (§1) Assay for Inhibition of Lipoxygenase Activity By Human Polymorphonuclear Leukocytes (PMNs)
(§2) 1. Preparation of the cells:
(§3) The PMNs were prepared from 200-300 ml of heparinized blood of healthy donors not receiving any medication for at least 7 days using Ficoll-Hypaque gradients. In general, PMNs were greater than 98% pure and their viability was assessed by dye-exclusion to be better than 95%. The cells were suspended in phosphate buffered saline containing 1.0 mM CaCl2 (PH 7.4) and 0.1 ovalbumin, and used within 30 minutes.
Incubations were carried out at 37° C. for 5 minutes in a total volume of 0.2 ml. Arachidonic acid 1-C^14 (1×10^-4 M unless otherwise indicated, and approximately 300,000 cpm) was added to a suspension of cells (ca 5×10^6) to initiate the reaction. Prior to the addition of above substrate, the test substances were added to the cells at appropriate concentrations and pre-incubated at 37° C. for 5 minutes. In general, stock solutions of test substances were prepared in ethanol (or other appropriate solvents) and diluted with either incubation buffer or water. […] Boiled enzyme blanks and controls containing no test compound were always included. The incubations were terminated by the addition of 0.6 ml of methanol, vortexed and kept on ice for 30 minutes. An internal standard (5-hydroxy-7,9,11,14-eicosatetraenoic acid methyl ester) and 1.6 ml of deionized water was added, vortexed, centrifuged, supernatants decanted and kept in the freezer overnight. Extraction and purification of the arachidonic acid and lipoxygenase products were carried out using "Baker" disposable C18 extraction columns (1 ml capacity). The columns were prewashed with methanol (2.0 ml) followed by deionized water (2 ml). After most of the solvent was removed, 2.0 ml of the supernatant was applied to the extraction column and the solvent was allowed to flow through. The column was then washed with 5 ml of deionized water and the eludate was discarded. The column was then eluted with 2.0 ml of methanol and the eludate was forced through by N2, collected and the solvent removed in a vacuum oven overnight. The residue was carefully dissolved in […] of the mobile phase (methanol 75:H2 O 25:acetic acid 0.01) and a 10 microliter aliquot counted to estimate the recoveries. An aliquot of an extract from a control tube was injected into a Waters μBondpack C-18 reverse phase column and the retention times of cycloxygenase and lipoxygenase products determined both by OD measurement at 244 nM and by collecting 1 min. fractions and determining radioactivity. Based on this information, programmed collection of fractions (total of 6) using a fraction collector was made with each of the extracts injected into the column by an autoinjector (WISP) and the fractions counted for radioactivity in a Packard Liquid Scintillation Spectrometer.
Using this procedure the following compounds were tested at a concentration of 1×10^-4 m and found to have the denoted lipoxygenase and cycloxygenase activity: […]

Another test deals with T2, Cyclooxygenase (Homo sapiens, UniProt P23219).
T2 construct: The PMNs were prepared from 200-300 ml of heparinized blood of healthy donors; endogenous in cells; host or cells: human polymorphonuclear leukocytes from heparinized blood of healthy donors (intact cells, more than 98% pure)
T2 sequence (P23219 24-599): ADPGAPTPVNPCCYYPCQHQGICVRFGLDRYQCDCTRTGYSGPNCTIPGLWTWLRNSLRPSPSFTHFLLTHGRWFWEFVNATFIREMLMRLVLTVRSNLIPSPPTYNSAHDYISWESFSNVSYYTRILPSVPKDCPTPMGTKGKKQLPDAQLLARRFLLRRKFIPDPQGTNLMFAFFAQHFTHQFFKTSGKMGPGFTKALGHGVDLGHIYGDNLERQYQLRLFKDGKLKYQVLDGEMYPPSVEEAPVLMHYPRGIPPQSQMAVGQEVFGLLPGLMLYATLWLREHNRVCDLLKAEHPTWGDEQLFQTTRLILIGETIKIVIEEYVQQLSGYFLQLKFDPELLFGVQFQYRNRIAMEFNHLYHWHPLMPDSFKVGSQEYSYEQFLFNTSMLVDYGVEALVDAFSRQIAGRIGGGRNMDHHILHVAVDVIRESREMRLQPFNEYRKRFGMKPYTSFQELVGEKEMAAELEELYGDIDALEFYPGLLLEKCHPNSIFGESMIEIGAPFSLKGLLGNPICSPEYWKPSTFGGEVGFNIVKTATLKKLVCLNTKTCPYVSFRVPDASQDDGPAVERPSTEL
The test is described as follows: Inhibition of cyclooxygenase activity in the human PMN arachidonic acid incubation. The format is cell-based. As to conditions: test compound 1×10^-4 m; human PMNs, 37° C., 5 minutes; arachidonic acid 1-C14 1×10^-4 M. As to the method:
as §1, §2, §3
Incubations were carried out at 37° C. for 5 minutes in a total volume of 0.2 ml. Arachidonic acid 1-C^14 (1×10^-4 M unless otherwise indicated, and approximately 300,000 cpm) was added to a suspension of cells (ca 5×10^6) to initiate the reaction. Prior to the addition of above substrate, the test substances were added to the cells at appropriate concentrations and pre-incubated at 37° C. for 5 minutes. In general, stock solutions of test substances were prepared in ethanol (or other appropriate solvents) and diluted with either incubation buffer or water. […] Boiled enzyme blanks and controls containing no test compound were always included. The incubations were terminated by the addition of 0.6 ml of methanol, vortexed and kept on ice for 30 minutes. […] The residue was carefully dissolved in […] of the mobile phase (methanol 75:H2 O 25:acetic acid 0.01) and a 10 microliter aliquot counted to estimate the recoveries. An aliquot of an extract from a control tube was injected into a Waters μBondpack C-18 reverse phase column and the retention times of cycloxygenase and lipoxygenase products determined both by OD measurement at 244 nM and by collecting 1 min. fractions and determining radioactivity. Based on this information, programmed collection of fractions (total of 6) using a fraction collector was made with each of the extracts injected into the column by an autoinjector (WISP) and the fractions counted for radioactivity in a Packard Liquid Scintillation Spectrometer. […]

On to `CCCCC/C=C\C/C=C\C/C=C\CC=C=CCCC(=O)O` [4,5,8Z,11Z,14Z-eicosatetraenoic acid], for which, at Lipoxygenase, the “Percent Inhibition Lipoxygenese Act. 5-HETE” value is 9% and the “Percent Inhibition Lipoxygenese Act. LTB4” value stood at 20%. Moreover, on Cyclooxygenase, the “Percent Inhibition Cyclooxygenese Act. Total "PGs"” value is reported as 9%.
Take `CCCCCCCCCCC/C=C\CC=C=CCCC(=O)O` [4,5,8Z-eicosatrienoic acid]: on Lipoxygenase, the “Percent Inhibition Lipoxygenese Act. 5-HETE” value is recorded as 42% and the “Percent Inhibition Lipoxygenese Act. LTB4” value was determined as 47%. Moreover, on Cyclooxygenase, the “Percent Inhibition Cyclooxygenese Act. Total "PGs"” value is 7%.
Take `CCCCCCCCCCCSCC=C=CCCC(=O)O` [8-thianonadeca-4,5-dienoic acid]: at Lipoxygenase, the “Percent Inhibition Lipoxygenese Act. 5-HETE” value came out at 46% and the “Percent Inhibition Lipoxygenese Act. LTB4” value came to 37%. On Cyclooxygenase, the “Percent Inhibition Cyclooxygenese Act. Total "PGs"” value was 22%.
